These results are taken from ChEMBL document CHEMBL1150060, “Potent inhibitors of histamine release, two novel triterpenoids from the Okinawan marine sponge Penares incrustans” (J Nat Prod, 1992).

A short description of series [1]: Cytotoxicity against rat peritoneal mast cells assessed as cell viability by trypan blue exclusion assay. The series is classed as cell-based. To be noted: read-out: Activity.
Series [2] relates to Mast cell. The experiment in a line: Inhibition of anti-IgE-induced histamine release in rat peritoneal mast cells. The format is functional, cell-based.

Structures are written as SMILES.

For `CC(=O)O[C@H]1CC[C@]2(C)C3=C(CC[C@H]2C1(C)C)[C@]1(C(=O)O)CC[C@H]([C@H](C)CCC=C(C)C)[C@@]1(C)CC3` [ACETYLPENASTEROL], the viability in series [1] worked out at 97%. In addition, in series [2], the Activity result is “Dose-dependent effect” and the IC50 amounted to 10 µM.
Regarding `CC(C)=CCC[C@@H](C)[C@H]1CC[C@@]2(C(=O)O)C3=C(CC[C@]12C)[C@@]1(C)CCC(=O)C(C)(C)[C@@H]1CC3` [PENASTERONE], the viability in series [1] was found to be 97%. Besides, in series [2], the Activity entry was “Dose-dependent effect” and the midpoint of inhibition, the IC50, lay at 1.5 µM.

In general, IC50 refers to the midpoint of a concentration-inhibition curve. Lower therefore signals greater potency in that assay.
